Measured values from paper PMC10377643, “Exploration of Bis-Cinnamido-Polyamines as Intrinsic Antimicrobial Agents and Antibiotic Enhancers” (Biomolecules, 2023).
pIC50: −log10 of the molar value.

Columns and labels:
E. coli ATCC 25922 [1] = experiment: Erythromycin enhancement against E. coli; format: cell-based, Escherichia coli; settings: erythromycin fixed at 10.9 µM (8 µg/mL)
Protocol: (§1) Antibiotic enhancer concentrations were determined using previously reported protocols.

[2] = tested on: C. neoformans ATCC 208821; experiment: Antifungal MIC, C. neoformans (CO-ADD); format: cell-based; settings: Cryptococcus neoformans, ATCC208821, mean (n = 2)
Protocol: (§2) The susceptibility of bacterial strains S. aureus (ATCC 25923), E. coli (ATCC 25922) and P. aeruginosa (ATCC 27853) to antibiotics and compounds was determined using protocols reported previously. Additional antimicrobial evaluation against MRSA (ATCC 43300), Klebsiella pneumoniae (ATCC 700603), Acinetobacter baumannii (ATCC 19606), Candida albicans (ATCC 90028) and Cryptococcus neoformans (ATCC 208821) was undertaken at the Community for Open Antimicrobial Drug Discovery at The University of Queensland (Australia) according to their standard protocols reported previously.

P. aeruginosa ATCC 27853 [3] = experiment: Antimicrobial MIC, P. aeruginosa; format: cell-based; settings: Pseudomonas aeruginosa, ATCC27853, mean (n = 3)
Protocol: as §2

S. aureus ATCC 25923 = experiment: Antimicrobial MIC, S. aureus; format: cell-based; settings: Staphylococcus aureus, ATCC25923, mean (n = 3)
Protocol: as §2

E. coli ATCC 25922 [4] = experiment: Antimicrobial MIC, E. coli; format: cell-based, Escherichia coli; settings: Escherichia coli, ATCC25922, E. coli ATCC 25922; mean (n = 3)
Protocol: as §2

human red blood cells = experiment: Hemolytic assay; format: cell-based; settings: mean (n = 2)
Protocol: Hemolysis assays were conducted using the protocols previously reported.

P. aeruginosa ATCC 27853 [5] = experiment: Doxycycline enhancement against P. aeruginosa; format: cell-based, Pseudomonas aeruginosa; settings: doxycycline fixed at 4.5 µM
Protocol: as §1
We then evaluated the set of analogues for the ability to enhance the antibiotic activity of doxycycline against P. aeruginosa ATCC 27853 and of erythromycin against E. coli ATCC 25922 (Table 2). In the case of doxycycline, a fixed concentration of the antibiotic of 4.5 μM, which is twenty-fold lower than the intrinsic MIC 90 μM against this organism, was used. Each of the test compounds was then evaluated at a range of concentrations varying from 3.125 to 50–100 μM, with the upper concentration dependent upon the compounds intrinsic MIC towards P. aeruginosa (Table 1). […] While the observation of cytotoxicity/hemolytic properties of 16a–c, 14f and 13f reduces our interest in these analogues, analogues 13b and 13d were identified as non-toxic and strong enhancers of the action of doxycycline towards P. aeruginosa.

Cytotoxicity assay = format: cell-based, human; settings: human, HEK293 human embryonic kidney cells, mean (n = 2), read-out: Cytotoxicity (IC50), concentration of compound at 50% cytotoxicity
Protocol: Cytotoxicity assays were conducted using the protocols previously reported.

C. albicans ATCC 90028 = experiment: Antifungal MIC, C. albicans (CO-ADD); format: cell-based; settings: Candida albicans, ATCC90028, mean (n = 2)
Protocol: as §2

MRSA ATCC 43300 = experiment: Antimicrobial MIC, MRSA (CO-ADD); format: cell-based, methicillin-resistant S. aureus; settings: Staphylococcus aureus; MRSA ATCC 43300; mean (n = 2); read-out: MIC MRSA
Protocol: as §2

SMILES | Eryth/E. c: concentration required to restore erythromycin activity (E. coli ATCC 25922 [1]) [µM] | Eryth/E. c: fold change (intrinsic MIC of test compound / combination MIC) (E. coli ATCC 25922 [1]) [fold] | MIC [2] [µM] | MIC (P. aeruginosa ATCC 27853 [3]) [µM] | MIC (S. aureus ATCC 25923) [µM] | MIC (E. coli ATCC 25922 [4]) [µM] | Hemolysis (HC10), concentration of compound at 10% hemolytic activity (human red blood cells) [µM] | Dox/P. a: concentration required to restore doxycycline activity (P. aeruginosa ATCC 27853 [5]) [µM] | Dox/P. a: fold change (intrinsic MIC of test compound / combination MIC) (P. aeruginosa ATCC 27853 [5]) [fold] | pIC50 (Cytotoxicity assay) | MIC (C. albicans ATCC 90028) [µM] | MIC (MRSA ATCC 43300) [µM]
O=C(C=Cc1ccccc1)NCCCNCCCCCCCNCCCNC(=O)C=Cc1ccccc1.O=C(O)C(F)(F)F.O=C(O)C(F)(F)F [Compound 13c, N^1,N^7-Bis(3-cinnamamidopropyl)heptane-1,7-diaminium 2,2,2-trifluoroacetate] | 136 | > 2 | > 43.7 | > 273 | > 273 | > 273 | >43.7 | 68 | > 4 | < 4.36 | > 43.7 | > 43.7
O=C(C=Cc1ccccc1)NCCCNCCCCCCCCCCNCCCNC(=O)C=Cc1ccccc1.O=C(O)C(F)(F)F.O=C(O)C(F)(F)F [Compound 13e, N^1,N^10-Bis(3-cinnamamidopropyl)decane-1,10-diaminium 2,2,2-trifluoroacetate] | 64.5 | 10 | 41.3 | 645 | 64.5 | 645 | 37.6 | 645 | 1 | 4.61 | > 41.3 | 20.6
O=C(C=Cc1ccccc1)NCCCNCCCCCCCCCCCCNCCCNC(=O)C=Cc1ccccc1.O=C(O)C(F)(F)F.O=C(O)C(F)(F)F [Compound 13f, N^1,N^12-Bis(3-cinnamamidopropyl)dodecane-1,12-diaminium 2,2,2-trifluoroacetate] | 3.125 | 0.5 | ≤ 0.31 | 50 | 3.12 | 1.56 | >39.9 | 6.25 | 8 | 4.70 | > 39.9 | ≤ 0.31
COc1ccc(/C=C/C(=O)NCCCNCCCCCCNCCCNC(=O)/C=C/c2ccc(OC)cc2)cc1.O=C(O)C(F)(F)F.O=C(O)C(F)(F)F [Compound 14b, N^1,N^6-Bis(3-((E)-3-(4-methoxyphenyl)acrylamido)propyl)hexane-1,6-diaminium 2,2,2-trifluoroacetate] | 256 | > 1 | ≤ 0.32 | > 257 | 64.2 | > 257 | >41.1 | 64 | > 4 | < 4.39 | > 41.1 | 41.1
COc1ccc(/C=C/C(=O)NCCCNCCCCCCNCCCNC(=O)/C=C/c2ccc(OC)c(Br)c2)cc1Br.O=C(O)C(F)(F)F.O=C(O)C(F)(F)F [Compound 15b, N^1,N^6-Bis(3-((E)-3-(3-bromo-4-methoxyphenyl)acrylamido)propyl)hexane-1,6-diaminium 2,2,2-trifluoroacetate] | 26.7 | 2 | ≤ 0.27 | > 214 | 6.67 | 53 | 0.99 | 53.4 | > 4 | < 4.47 | > 34.1 | 2.1
COc1ccc(/C=C/C(=O)NCCCNCCCCCCCCNCCCNC(=O)/C=C/c2ccc(OC)c(Br)c2)cc1Br.O=C(O)C(F)(F)F.O=C(O)C(F)(F)F [Compound 15d, N^1,N^8-Bis(3-((E)-3-(3-bromo-4-methoxyphenyl)acrylamido)propyl)octane-1,8-diaminium 2,2,2-trifluoroacetate] | 25.9 | 1 | ≤ 0.26 | > 207 | 6.48 | 25.9 | 0.52 | 51.8 | > 4 | 4.71 | 33.2 | ≤ 0.26
COc1c(Br)cc(/C=C/C(=O)NCCCNCCCCCCNCCCNC(=O)/C=C/c2cc(Br)c(OC)c(Br)c2)cc1Br.O=C(O)C(F)(F)F.O=C(O)C(F)(F)F [Compound 16b, N^1,N^6-Bis(3-((E)-3-(3,5-dibromo-4-methoxyphenyl)acrylamido)propyl)hexane-1,6-diaminium 2,2,2-trifluoroacetate] | 11.4 | 1 | ≤ 0.23 | > 183 | 5.71 | 11.4 | 0.91 |  | > 16 | 4.81 | 29.2 | ≤ 0.23
COc1c(Br)cc(/C=C/C(=O)NCCCNCCCCCCCNCCCNC(=O)/C=C/c2cc(Br)c(OC)c(Br)c2)cc1Br.O=C(O)C(F)(F)F.O=C(O)C(F)(F)F [Compound 16c, N^1,N^7-Bis(3-((E)-3-(3,5-dibromo-4-methoxyphenyl)acrylamido)propyl)heptane-1,7-diaminium 2,2,2-trifluoroacetate] | 22.6 | 0.5 | ≤ 0.23 | 180 | 5.64 | 11.3 | 0.31 |  | 16 | 4.66 | > 28.9 | ≤ 0.23
COc1c(Br)cc(/C=C/C(=O)NCCCNCCCCCCCCNCCCNC(=O)/C=C/c2cc(Br)c(OC)c(Br)c2)cc1Br.O=C(O)C(F)(F)F.O=C(O)C(F)(F)F [Compound 16d, N^1,N^8-Bis(3-((E)-3-(3,5-dibromo-4-methoxyphenyl)acrylamido)propyl)octane-1,8-diaminium 2,2,2-trifluoroacetate] | 22.3 | 0.5 | ≤ 0.22 | > 178 | 5.57 | 11.1 | ≤0.22 | 44.5 | > 4 | 4.96 | > 28.5 | ≤ 0.22
COc1c(Br)cc(/C=C/C(=O)NCCCNCCCCCCCCCCNCCCNC(=O)/C=C/c2cc(Br)c(OC)c(Br)c2)cc1Br.O=C(O)C(F)(F)F.O=C(O)C(F)(F)F [Compound 16e, N^1,N^10-Bis(3-((E)-3-(3,5-dibromo-4-methoxyphenyl)acrylamido)propyl)decane-1,10-diaminium 2,2,2-trifluoroacetate] |  |  | ≤ 0.22 | 87 | 1.36 | 43.5 | 13.6 | 43.5 | 2 | 5.70 | 27.8 | ≤ 0.22
